Data from patent US8178506B2, “Oligomeric compounds and compositions for use in modulation of small non-coding RNAs” (Regulus Therapeutics Inc., priority 2003, dated 2012).
In the oligonucleotide strings, read from the 5' end, every base follows the letter of its sugar. An asterisk marks phosphorothioate; unmarked linkages are phosphodiester. Other units and linkages are bracketed, terminal groups are in braces. A string of capitals states the bases alone. e = 2'-O-(2-methoxyethyl) (MOE); [5mC] = 5-methylcytosine; d = 2'-deoxy (DNA)

Experiments:
IGFBP-1 = IGFBP-1 mRNA expression in HepG2 cells; format: cell-based, human; details: for IGFBP1 mRNA: four hours, UTC = 100; for IGFBP1 mRNA expression: Experiment 2, insulin treated: HepG2 cells transfected with oligomeric compound, 1 nM insulin for four hours, UTC + 1 nM insulin = 100
follistatin = assay: Follistatin mRNA expression in HepG2 cells; format: cell-based, human; details: for Follistatin mRNA: four hours, UTC = 100; for Follistatin mRNA expression: Experiment 2, insulin treated: HepG2 cells transfected with oligomeric compound, 1 nM insulin for four hours, UTC + 1 nM insulin = 100
IL-12 mRNA = IL-12 mRNA in LPS-activated primary murine macrophages; format: cell-based, mouse; details: for IL-12 mRNA expression, −IFN % UTC: 300 nM oligomeric compound and LPS, no IFN-gamma pretreatment, single experiment; for IL-12 mRNA expression, −IFN % UTC / IL-12 mRNA expression, +IFN % UTC: normalized to LPS-treated cells without oligomeric compound; for IL-12 mRNA expression, +IFN % UTC: 300 nM oligomeric compound, stimulation with IFN-gamma and LPS, average of 2 experiments; for IL-12 mRNA expression, % UTC: LPS, average of 3 treatments
[1] = HepG2 cells, Experiment 1, basal (no insulin)
[2] = Experiment 1, basal (no insulin), HepG2, 100 nM oligomeric compound
[3] = Experiment 2, 1 nM insulin treated, HepG2, 100 nM oligomeric compound
[4] = Experiment 3, basal (no insulin), HepG2 cells, 48 hours post-transfection
[5] = Experiment 4, insulin-sensitization: HepG2 cells treated with 1 nM insulin for four hours, 48 h post-transfection, mRNA by real-time PCR

| Substance | IGFBP1 mRNA (IGFBP-1; [1]) | Follistatin mRNA (follistatin; [1]) | IL-12 mRNA expression, −IFN % UTC (IL-12 mRNA) [% UTC] | IL-12 mRNA expression, +IFN % UTC (IL-12 mRNA) [% UTC] | IGFBP-1 (% UTC) (IGFBP-1; [2]) | IGFBP-1 (% UTC) (IGFBP-1; [3]) | Follistatin (% UTC) (follistatin; [2]) | Follistatin (% UTC) (follistatin; [3]) | further results |
| --- | --- | --- | --- | --- | --- | --- | --- | --- | --- |
| 327899 (antisense e[5mC]*eA*eG*eT*eG*eA*eA*eT*eT*e[5mC]*eT*eA*e[5mC]*e[5mC]*eA*eG*eT*eG*e[5mC]*e[5mC]*eA*eT*eA) [compound 327899] | 105 | 66 | 164 | 7 | – | – | – | – | – |
| 327925 (antisense eT*eA*eG*e[5mC]*eT*eG*eG*eT*eT*eG*eA*eA*eG*eG*eG*eG*eA*e[5mC]*e[5mC]*eA*eA) [compound 327925] | – | – | 302 | 60 | 152 | 166 | 110 | 148 | – |
| 327920 (antisense eG*eA*eG*eA*e[5mC]*e[5mC]*e[5mC]*eA*eG*eT*eA*eG*e[5mC]*e[5mC]*eA*eG*eA*eT*eG*eT*eA*eG*e[5mC]*eT) [compound 327920] | 165 | 99 | 171 | 68 | – | – | – | – | IGFBP1 mRNA expression (IGFBP-1): 267; Follistatin mRNA expression (follistatin): 102 |
| 327887 (antisense eG*e[5mC]*eG*eA*e[5mC]*e[5mC]*eA*eT*eG*eG*e[5mC]*eT*eG*eT*eA*eG*eA*e[5mC]*eT*eG*eT*eT*eA) [compound 327887] | 119 | 113 | 287 | 33 | – | – | – | – | – |
| 327893 (antisense eA*eA*e[5mC]*e[5mC]*eA*e[5mC]*eA*e[5mC]*eA*eA*e[5mC]*e[5mC]*eT*eA*e[5mC]*eT*eA*e[5mC]*e[5mC]*eT*e[5mC]*eA) [compound 327893] | 107 | 93 | 117 | 52 | – | – | – | – | – |
| 327913 (antisense eA*eA*e[5mC]*e[5mC]*eG*eA*eT*eT*eT*e[5mC]*eA*eA*eA*eT*eG*eG*eT*eG*e[5mC]*eT*eA*eG) [compound 327913] | – | – | 276 | 73 | 123 | 147 | 115 | 123 | – |
| 341800 (antisense AAGCCCAAAAGGAGAAUUCUUUG; all 2'-MOE, all phosphorothioate, methylation of C and T or U not given here) [compound 341800] | 114 | 105 | 180 | 100 | – | – | – | – | – |
| 327919 (antisense eG*eA*eA*eA*e[5mC]*e[5mC]*e[5mC]*eA*eG*e[5mC]*eA*eG*eA*e[5mC]*eA*eA*eT*eG*eT*eA*eG*e[5mC]*eT) [compound 327919] | – | – | 179 | 37 | 96 | 154 | 74 | 178 | – |
| 327876 (antisense eA*eA*e[5mC]*eA*e[5mC]*eT*eG*eA*eT*eT*eT*e[5mC]*eA*eA*eA*eT*eG*eG*eT*eG*e[5mC]*eT*eA) [compound 327876] | – | – | 194 | 9 | 93 | 118 | 104 | 138 | – |
| 327941 (antisense eA*eA*e[5mC]*e[5mC]*e[5mC]*eA*e[5mC]*e[5mC]*eG*eA*e[5mC]*eA*eG*e[5mC]*eA*eA*eT*eG*eA*eA*eT*eG*eT*eT) [compound 327941] | – | – | 89 | 34 | 83 | 80 | 80 | 68 | IL-12 mRNA expression, % UTC (IL-12 mRNA; 75 nM, +IFN): 4 % UTC; IL-12 mRNA expression, % UTC (IL-12 mRNA; 75 nM, −IFN): 49 % UTC; IL-12 mRNA expression, % UTC (IL-12 mRNA; 150 nM, +IFN): 2 % UTC; IL-12 mRNA expression, % UTC (IL-12 mRNA; 150 nM, −IFN): 45 % UTC; IL-12 mRNA expression, % UTC (IL-12 mRNA; 300 nM, +IFN): 3 % UTC; IL-12 mRNA expression, % UTC (IL-12 mRNA; 300 nM, −IFN): 34 % UTC; IL-12 mRNA expression, % UTC (IL-12 mRNA; 600 nM, +IFN): 3 % UTC; IL-12 mRNA expression, % UTC (IL-12 mRNA; 600 nM, −IFN): 41 % UTC |
| 327890 (antisense eA*eG*e[5mC]*eA*e[5mC]*eA*eA*eA*e[5mC]*eT*eA*e[5mC]*eT*eA*e[5mC]*e[5mC]*eT*e[5mC]*eA) [compound 327890] | – | – | 183 | 94 | 99 | 88 | 78 | 115 | – |
| 327901 (antisense eT*eG*eA*eG*e[5mC]*eT*eA*e[5mC]*eA*eG*eT*eG*e[5mC]*eT*eT*e[5mC]*eA*eT*e[5mC]*eT*e[5mC]*eA) [compound 327901] | – | – | 225 | 9 | 133 | 135 | 93 | 135 | – |
| 327889 (antisense eG*eT*eG*eG*eT*eA*eA*eT*e[5mC]*e[5mC]*e[5mC]*eT*eG*eG*e[5mC]*eA*eA*eT*eG*eT*eG*eA*eT) [compound 327889] | – | – | 153 | 10 | 56 | 73 | 56 | 72 | – |
| 327903 (antisense eA*eA*e[5mC]*eT*eA*eT*eA*e[5mC]*eA*eA*e[5mC]*e[5mC]*eT*eA*e[5mC]*eT*eA*e[5mC]*e[5mC]*eT*e[5mC]*eA) [compound 327903] | – | – | 200 | 23 | 71 | 81 | 60 | 89 | – |
| 327923 (antisense eG*eA*eA*eA*eG*eA*eG*eA*e[5mC]*e[5mC]*eG*eG*eT*eT*e[5mC]*eA*e[5mC]*eT*eG*eT*eG*eA) [compound 327923] | 116 | 86 | 269 | 134 | – | – | – | – | IGFBP1 mRNA expression (IGFBP-1): 119; Follistatin mRNA expression (follistatin): 106 |
| 327878 (antisense e[5mC]*eT*eA*eG*eT*eG*eG*eT*e[5mC]*e[5mC]*eT*eA*eA*eA*e[5mC]*eA*eT*eT*eT*e[5mC]*eA*e[5mC]) [compound 327878] | – | – | – | – | 162 | 185 | 124 | 150 | – |
| 328685 (e[5mC]*eG*eG*e[5mC]*e[5mC]*dG*dG*dA*dG*d[5mC]*d[5mC]*dA*dT*dA*dG*eA*e[5mC]*eT*e[5mC]*eG; antisense) [compound 328685] | – | – | – | – | – | – | – | – | IGFBP-1 (% UTC) (IGFBP-1; [4]): 157 % UTC; IGFBP-1 (% UTC) (IGFBP-1; [5]): 143 % UTC; Follistatin (% UTC) (follistatin; [4]): 100 % UTC; Follistatin (% UTC) (follistatin; [5]): 157 % UTC |
| 341803 (antisense CCACACACTTCCTTACATTCCA; all 2'-MOE, all phosphorothioate, methylation of C not given here) [compound 341803] | 107 | 68 | – | – | – | – | – | – | – |
| 341805 (antisense ACCCTTATCAGTTCTCCGTCCA; all 2'-MOE, all phosphorothioate, methylation of C not given here) [compound 341805] | 105 | 63 | – | – | – | – | – | – | – |
| 328691 (e[5mC]*e[5mC]*e[5mC]*e[5mC]*eA*dT*d[5mC]*dT*dT*dA*dG*d[5mC]*dA*dT*d[5mC]*eT*eA*eA*eG*eG) [compound 328691] | – | – | – | – | – | – | – | – | IGFBP-1 (% UTC) (IGFBP-1; [4]): 105 % UTC; IGFBP-1 (% UTC) (IGFBP-1; [5]): 101 % UTC; Follistatin (% UTC) (follistatin; [4]): 93 % UTC; Follistatin (% UTC) (follistatin; [5]): 104 % UTC |
